Patent publication US5773414A, “Endothelin antagonists” (Warner-Lambert Company, priority 1997, dated 1998)
Square brackets hold non-standard residues; d marks the D form. Peptide text beside a SMILES is read from it. * marks the point of attachment. Acetyl(1-adamantyl) = O=C(CC12CC3CC(CC(C3)C1)C2)*; dDip = N[C@@H](C(=O)O)C(c1ccccc1)c1ccccc1; X1 = CC(C(=O)*)(c1ccccc1)c1ccccc1; Orn = NCCC[C@H](N)C(=O)O; Piv = CC(C)(C)C(=O)*

Key:
[1] = molecular target: T1, ETA (Oryctolagus cuniculus, UniProt A5A8K3); assay: Endothelin Receptor Binding Assay-A (ETA), intact cell binding of [125I]-ET-1; design: species or system rabbit; conditions: Table IIa; rabbit renal artery vascular smooth muscle cells; read-out: Binding Assay IC50 at Receptor Subtypes ETA
T1 construct: The cells used were rabbit renal artery vascular smooth muscle cells; endogenous in cells; host or cells: rabbit renal artery vascular smooth muscle cells
T1 sequence (A5A8K3 21-427): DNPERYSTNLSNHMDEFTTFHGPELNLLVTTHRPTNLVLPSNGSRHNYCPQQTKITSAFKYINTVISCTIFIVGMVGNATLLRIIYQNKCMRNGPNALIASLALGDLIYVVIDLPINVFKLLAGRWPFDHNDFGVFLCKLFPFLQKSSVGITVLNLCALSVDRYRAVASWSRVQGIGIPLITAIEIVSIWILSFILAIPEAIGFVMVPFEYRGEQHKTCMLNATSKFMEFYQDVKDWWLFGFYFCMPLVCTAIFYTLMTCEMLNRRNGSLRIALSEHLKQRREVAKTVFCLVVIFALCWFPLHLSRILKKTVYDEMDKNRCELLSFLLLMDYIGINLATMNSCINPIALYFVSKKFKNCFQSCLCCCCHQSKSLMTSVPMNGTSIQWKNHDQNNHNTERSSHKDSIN
Procedure: The cells used were rabbit renal artery vascular smooth muscle cells grown in a 48-well dish (1 cm^2) (confluent cells).
The growth media was Dulbeccos Modified Eagles/Ham's F12 which contained 10 fetal bovine serum and antibiotics (penicillin/streptomycin/fungizone).
Second, remove the assay buffers, place the dish on ice, and add 150 μL of cold assay buffer described above to each well. […] Next, place dish in a 37° C. water bath for about 2 hours and gently agitate the dish every 15 minutes. Discard the radioactive incubation mixture in the sink and wash wells 3 times with 1 mL of cold phosphate buffered saline. Last, add […] of 0.25M sodium hydroxide, agitate for 1 hour on rotator, and then transfer the sodium hydroxide extract to gamma counting tubes and count the radioactivity.

[2] = molecular target: T2, ETB (Rattus norvegicus, UniProt P21451); assay: Endothelin Receptor Binding Assay-B (ETB), [125I]-ET-1 binding in rat cerebellar membranes; conditions: Table IIa; rat cerebellar membranes; read-out: Binding Assay IC50 at Receptor Subtypes ETB
T2 construct: thaw one aliquot of frozen rat cerebellar membranes; from tissue; host or cells: rat cerebellar membranes
T2 sequence (P21451 27-442): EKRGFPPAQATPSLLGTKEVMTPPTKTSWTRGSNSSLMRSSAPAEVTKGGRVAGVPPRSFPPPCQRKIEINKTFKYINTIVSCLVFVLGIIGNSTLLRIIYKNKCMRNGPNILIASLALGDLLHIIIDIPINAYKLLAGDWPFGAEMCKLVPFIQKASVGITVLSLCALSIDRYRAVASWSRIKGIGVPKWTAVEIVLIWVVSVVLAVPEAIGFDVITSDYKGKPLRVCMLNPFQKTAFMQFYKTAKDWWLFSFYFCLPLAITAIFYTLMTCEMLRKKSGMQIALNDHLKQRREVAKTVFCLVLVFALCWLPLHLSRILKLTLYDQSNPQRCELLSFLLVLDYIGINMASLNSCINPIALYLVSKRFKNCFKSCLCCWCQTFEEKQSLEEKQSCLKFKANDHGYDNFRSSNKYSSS
Procedure: The tissue is made up of 20 mM tris(hydroxymethyl)aminomethane hydrochloride (Trizma) buffer, 2 mM ethylenediaminetetraacetate, 100 μM phenylmethylsulfonyl fluoride.
First, thaw one aliquot of frozen rat cerebellar membranes (2 mg protein in 0.5 mL). Next, add 0.5 mL membrane aliquot to 4.5 mL cold tissue buffer, polytron at 7,500 revolutions per minute for 10 seconds. Finally, dilute tissue suspension 1/100 (0.1 mL suspension+9.9 mL tissue buffer), polytron again, and place ice.
Mix in 150 μL of tissue to each tube, vortex briefly, then tap to force all liquids to bottom (total assay volume=250 μL). Then place the tubes in a 37° C. water bath for 2 hours.
Add 2.5 mL cold water buffer (50 mM Trizma buffer) to each tube, filter, and then wash tube with additional 2.5 mL wash buffer and add to filter. Finally, wash filters with an additional 2.5 mL of cold wash buffer.
Count filters for radioactivity in gamma counter.

IC50 [1]	Structure (SMILES)	IC50 [2]
4000 nM	CC[C@H](C)[C@H](NC(=O)[C@H](CC(=O)O)NC(=O)[C@H](CC(C)C)NC(=O)[C@H](NC(=O)CC12CC3CC(CC(C3)C1)C2)C(c1ccccc1)c1ccccc1)C(=O)N[C@H](C(=O)N[C@@H](Cc1c[nH]c2ccccc12)C(=O)O)[C@@H](C)CC [Example 35, Ada--D--Dip--Leu--Asp--Ile--Ile--Trp] ({Acetyl(1-adamantyl)}-[dDip]LDIIW-OH)	500 nM
	CC[C@H](C)[C@H](NC(=O)[C@H](CC(=O)O)NC(=O)[C@H](Cc1ccccc1)NC(=O)[C@@H](Cc1ccccc1)NC(C)=O)C(=O)N[C@H](C(=O)N[C@@H](Cc1c[nH]c2ccccc12)C(=O)O)[C@@H](C)CC [Example 60, Ac--D--Phe--Phe--Asp--Ile--Ile--Trp] (Ac-[dF]FDIIW-OH)	300 nM
10000 nM	CC[C@H](C)[C@H](NC(=O)[C@H](CC(=O)O)NC(=O)[C@H](CC(C)C)NC(=O)[C@H](NC(=O)C(C)(C)C)C(c1ccccc1)c1ccccc1)C(=O)N[C@H](C(=O)N[C@@H](Cc1c[nH]c2ccccc12)C(=O)O)[C@@H](C)CC [Example 38, tBu--D--Dip--Leu--Asp--Ile--Ile--Trp] (Piv-[dDip]LDIIW-OH)	500 nM
8000 nM	CC[C@H](C)[C@H](NC(=O)[C@H](CC(=O)O)NC(=O)[C@H](CC(C)C)NC(=O)C(C)(c1ccccc1)c1ccccc1)C(=O)N[C@H](C(=O)N[C@@H](Cc1c[nH]c2ccccc12)C(=O)O)[C@@H](C)CC [Example 28, Bppa--Leu--Asp--Ile--Ile--Trp] (X1-LDIIW-OH)	1700 nM
650 nM	CC[C@H](C)[C@H](NC(=O)[C@H](CC(=O)O)NC(=O)[C@H](CCC(=O)O)NC(=O)[C@@H](Cc1ccccc1)NC(C)=O)C(=O)N[C@H](C(=O)N[C@@H](Cc1c[nH]c2ccccc12)C(=O)O)[C@@H](C)CC [Example 9, Ac--D--Phe--Glu--Asp--Ile--Ile--Trp] (Ac-[dF]EDIIW-OH)	1300 nM
	CC[C@H](C)[C@H](NC(=O)[C@H](Cc1ccccc1)NC(=O)[C@H](CC(C)C)NC(=O)[C@@H](Cc1ccccc1)NC(C)=O)C(=O)N[C@H](C(=O)N[C@@H](Cc1c[nH]c2ccccc12)C(=O)O)[C@@H](C)CC [Example 67, Ac--D--Phe--Leu--Phe--Ile--Ile--Trp] (Ac-[dF]LFIIW-OH)	35 nM
400 nM	CC[C@H](C)[C@H](NC(=O)[C@H](CC(=O)O)NC(=O)[C@H](CC(C)C)NC(=O)[C@@H](Cc1ccc(O)cc1)NC(C)=O)C(=O)N[C@H](C(=O)N[C@@H](Cc1c[nH]c2ccccc12)C(=O)O)[C@@H](C)CC [Example 10, Ac--D--Tyr--Leu--Asp--Ile--Ile--Trp] (Ac-[dY]LDIIW-OH)	
	CC[C@H](C)[C@H](NC(=O)[C@H](CC(=O)O)NC(=O)[C@H](CC(C)C)NC(=O)[C@@H](Cc1ccccc1)NC(C)=O)C(=O)N[C@H](C(=O)N[C@@H](Cc1c[nH]c2ccccc12)C(=O)O)[C@@H](C)CC [Example 1, Ac--D--Phe--Leu--Asp--Ile--Ile--Trp] (Ac-[dF]LDIIW-OH)	3300 nM
	CC[C@H](C)[C@H](NC(=O)[C@H](CC(=O)O)NC(=O)[C@@H](Cc1ccccc1)NC(=O)[C@@H](Cc1ccccc1)NC(C)=O)C(=O)N[C@H](C(=O)N[C@@H](Cc1c[nH]c2ccccc12)C(=O)O)[C@@H](C)CC [Example 61, Ac--D--Phe--D--Phe--Asp--Ile--Ile--Trp] (Ac-[dF][dF]DIIW-OH)	10 nM
	CC[C@H](C)[C@H](NC(=O)[C@H](CC(=O)O)NC(=O)[C@H](CCCN)NC(=O)[C@@H](Cc1ccccc1)NC(C)=O)C(=O)N[C@H](C(=O)N[C@@H](Cc1c[nH]c2ccccc12)C(=O)O)[C@@H](C)CC [Example 8, Ac--D--Phe--Orn--Asp--Ile--Ile--Trp] (Ac-[dF][Orn]DIIW-OH)	4000 nM

Structure (SMILES)	IC50 [1]	IC50 [2]
CC[C@H](C)[C@H](NC(=O)[C@H](CC(=O)O)NC(=O)[C@H](CC(C)C)NC(=O)[C@H](N)C(c1ccccc1)c1ccccc1)C(=O)N[C@H](C(=O)N[C@@H](Cc1c[nH]c2ccccc12)C(=O)O)[C@@H](C)CC [Example 49, D--Dip--Leu--Asp--Ile--Ile--Trp] (H-[dDip]LDIIW-OH)	2100 nM	
